Test results taken from patent US20230002357A1, “7-PYRIMIDINE-2-YL-OXY-INDAZOLE DERIVATIVES AND THEIR USE AS HERBICIDES” (SYNGENTA CROP PROTECTION AG, priority 2019, published 2023).

Columns and labels:
Type in all cases: in vivo
Settings in all cases: 250 g/ha, evaluated after 13 days
[1] = tested on: Amaranthus retoflexus (AMARE); experiment: Post-emergence Test, glasshouse, AMARE
Outline: (§1)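 Damage was scored 13 days after treatment on a five-point scale (1=0-20% up to 5=81-100%). Plants in soil were sprayed one day after sowing for pre-emergence or eight days after for post-emergence, at 250 g/ha unless otherwise stated. The glasshouse was held at 24/16 °C with 14 h light.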

ABUTH [2] = experiment: Post-emergence Test, glasshouse, ABUTH
Outline: as §1

Setaria faberi (SETFA) [3] = experiment: Post-emergence Test, glasshouse, SETFA
Outline: as §1

[4] = tested on: Echinochloa crus-galli (ECHCG); experiment: Post-emergence Test, glasshouse, ECHCG
Outline: as §1

IPOHE [5] = experiment: Post-emergence Test, glasshouse, IPOHE
Outline: as §1

[6] = tested on: Amaranthus retoflexus (AMARE); experiment: Pre-emergence Test, glasshouse, AMARE
Outline: as §1

ABUTH [7] = experiment: Pre-emergence Test, glasshouse, ABUTH
Outline: as §1

Setaria faberi (SETFA) [8] = experiment: Pre-emergence Test, glasshouse, SETFA
Outline: as §1

[9] = tested on: Echinochloa crus-galli (ECHCG); experiment: Pre-emergence Test, glasshouse, ECHCG
Outline: as §1

IPOHE [10] = experiment: Pre-emergence Test, glasshouse, IPOHE
Outline: as §1

| SMILES | percentage damage caused to the plant, five-point scale, AMARE [1] | percentage damage caused to the plant, five-point scale, ABUTH (ABUTH [2]) | percentage damage caused to the plant, five-point scale, SETFA (Setaria faberi (SETFA) [3]) | percentage damage caused to the plant, five-point scale, ECHCG [4] | percentage damage caused to the plant, five-point scale, IPOHE (IPOHE [5]) | percentage damage caused to the plant, five-point scale, AMARE [6] | percentage damage caused to the plant, five-point scale, ABUTH (ABUTH [7]) | percentage damage caused to the plant, five-point scale, SETFA (Setaria faberi (SETFA) [8]) | percentage damage caused to the plant, five-point scale, ECHCG [9] | percentage damage caused to the plant, five-point scale, IPOHE (IPOHE [10]) |
| --- | --- | --- | --- | --- | --- | --- | --- | --- | --- | --- |
| FCCCCn1nc(Cl)c2cccc(Oc3ncc(Cl)cn3)c21 [Compound 1.039] | 5 (5=81-100%) | 4 (4=61-80%) | 4 (4=61-80%) | 4 (4=61-80%) | 4 (4=61-80%) | 5 (5=81-100%) | 3 (3=41-60%) | 5 (5=81-100%) | 5 (5=81-100%) | 1 (1=0-20%) |
| FC(F)CCCn1nc(Cl)c2cccc(Oc3ncc(Cl)cn3)c21 [Compound 1.040] | 5 (5=81-100%) | 4 (4=61-80%) | 4 (4=61-80%) | 5 (5=81-100%) | 5 (5=81-100%) | 5 (5=81-100%) | 4 (4=61-80%) | 5 (5=81-100%) | 5 (5=81-100%) | 2 (2=21-40%) |
| N#Cc1ccc2c(Cl)nn(CCCC(F)(F)F)c2c1Oc1ncc(Cl)cn1 [Compound 1.041, 3-chloro-7-(5-chloropyrimidin-2-yl)oxy-1-(4,4,4-trifluorobutyl)indazole-6-carbonitrile] | 1 (1=0-20%) | 1 (1=0-20%) | 1 (1=0-20%) | 1 (1=0-20%) | 1 (1=0-20%) | 1 (1=0-20%) | 1 (1=0-20%) | 1 (1=0-20%) | 1 (1=0-20%) | 1 (1=0-20%) |
| FC(F)(F)CCn1ncc2cccc(Oc3ncc(Cl)cn3)c21 [Compound 1.042] | 4 (4=61-80%) | 4 (4=61-80%) | 4 (4=61-80%) | 4 (4=61-80%) | 2 (2=21-40%) | 5 (5=81-100%) | 4 (4=61-80%) | 5 (5=81-100%) | 5 (5=81-100%) | 1 (1=0-20%) |
